Where two headings read alike, the source gives them in different places.
What was measured:
Heliothis armigera = assay: Insecticidal activity, artificial feed surface coating method; format: in vivo; details: Helicoverpa armigera, read-out: Insecticidal activity (mortality rate grade) Heliothis armigera
How it was run: (§1)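 Artificial diet in 24-well plates, surface-coated with test solution at 500, 250 and 125 mg/L. Each concentration was tested in two replicates (Rep1, Rep2).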

Plutella xylostella = assay: as above; format: in vivo; details: Plutella xylostella, read-out: Insecticidal activity (mortality rate grade) Plutella xylostella
How it was run: as §1

Aphiscraccivora = assay: Insecticidal activity, dipping method; format: in vivo
How it was run: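 Aphids tested by dipping in ethanol-dissolved compound diluted to 500, 250 or 125 mg/L with 0.1 mL/L Tween-80, two replicates plus blank control. Mortality scored on a 0/3/5/7/9 scale for 0–30, 30–50, 50–70, 70–90 and 90–100%.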

[1] = test system: Verticillium dahliae.kieb.; assay: Bactericidal (fungicidal) activity by microdilution; format: cell-based
Fusarium culmorum = assay: as above; format: cell-based
[2] = test system: Fusarium oxysporum f. sp. Niveum; assay: as above; format: cell-based
Thanatephorus cucumeris = assay: as above; format: cell-based
Septoria nodorum Berk. = assay: as above; format: cell-based
Botrytis cinerea = assay: as above; format: cell-based
Leptosphaeria biglobosa = assay: as above; format: cell-based
Alternaria kikuchiana = assay: as above; format: cell-based
[3] = test system: Corynespora leaf spot of tomato; assay: as above; format: cell-based
Rhizoctonia solani = assay: as above; format: cell-based
[4] = test system: Colletotrichum gloeobosporioids; assay: as above; format: cell-based
Pythium aphanidermatum = assay: as above; format: cell-based
Magnaporthe oryzae = format: cell-based

COC(=O)Nc1nc2ccccc2n1CCCCS(=O)(=O)O [III-3]
mortality at 125 µg/mL (Heliothis armigera; 125 mg/L test solution): 0 to 30% | mortality at 250 µg/mL (Heliothis armigera; 250 mg/L test solution): 0 to 30% | mortality at 500 µg/mL (Heliothis armigera; 500 mg/L test solution): 0 to 30% | mortality at 125 µg/mL (Plutella xylostella; 125 mg/L test solution): 0 to 30% | mortality at 250 µg/mL (Plutella xylostella; 250 mg/L test solution): 0 to 30% | mortality at 500 µg/mL (Plutella xylostella; 500 mg/L test solution): 0 to 30% | Insecticidal activity (mortality rate grade) Aphiscraccivora (Aphiscraccivora; 125 mg/L test solution): 0 (mortality rate of 0˜30%) | Insecticidal activity (mortality rate grade) Aphiscraccivora (Aphiscraccivora; 250 mg/L test solution): 0 (mortality rate of 0˜30%) | Insecticidal activity (mortality rate grade) Aphiscraccivora (Aphiscraccivora; 500 mg/L test solution): 0 (mortality rate of 0˜30%) | Fungicidal activity (antibacterial rate grade) Verticillium dahliae. kieb. ([1]; 12.5 mg/L): 9 (The antibacterial rate of 90˜100% could be set as 9 if the target has totally no growth) | Fungicidal activity (antibacterial rate grade) Verticillium dahliae. kieb. ([1]; 25 mg/L): 9 (The antibacterial rate of 90˜100% could be set as 9 if the target has totally no growth) | Fungicidal activity (antibacterial rate grade) Verticillium dahliae. kieb. ([1]; 50 mg/L): 9 (The antibacterial rate of 90˜100% could be set as 9 if the target has totally no growth) | Fungicidal activity (antibacterial rate grade) Verticillium dahliae. kieb. ([1]; 100 mg/L): 9 (The antibacterial rate of 90˜100% could be set as 9 if the target has totally no growth) | Fungicidal activity (antibacterial rate grade) Fusarium culmorum (Fusarium culmorum; 12.5 mg/L): 7 (The antibacterial rate of 70˜90% could be set as 7 if the target has small amounts of growth) | Fungicidal activity (antibacterial rate grade) Fusarium culmorum (Fusarium culmorum; 25 mg/L): 9 (The antibacterial rate of 90˜100% could be set as 9 if the target has totally no growth) | Fungicidal activity (antibacterial rate grade) Fusarium culmorum (Fusarium culmorum; 50 mg/L): 9 (The antibacterial rate of 90˜100% could be set as 9 if the target has totally no growth) | Fungicidal activity (antibacterial rate grade) Fusarium culmorum (Fusarium culmorum; 100 mg/L): 9 (The antibacterial rate of 90˜100% could be set as 9 if the target has totally no growth) | Fungicidal activity (antibacterial rate grade) Fusarium oxysporum f. sp. Niveum ([2]; 12.5 mg/L): 9 (The antibacterial rate of 90˜100% could be set as 9 if the target has totally no growth) | Fungicidal activity (antibacterial rate grade) Fusarium oxysporum f. sp. Niveum ([2]; 25 mg/L): 9 (The antibacterial rate of 90˜100% could be set as 9 if the target has totally no growth) | Fungicidal activity (antibacterial rate grade) Fusarium oxysporum f. sp. Niveum ([2]; 50 mg/L): 9 (The antibacterial rate of 90˜100% could be set as 9 if the target has totally no growth) | Fungicidal activity (antibacterial rate grade) Fusarium oxysporum f. sp. Niveum ([2]; 100 mg/L): 9 (The antibacterial rate of 90˜100% could be set as 9 if the target has totally no growth) | Fungicidal activity (antibacterial rate grade) Thanatephorus cucumeris (Thanatephorus cucumeris; 12.5 mg/L): 9 (The antibacterial rate of 90˜100% could be set as 9 if the target has totally no growth) | Fungicidal activity (antibacterial rate grade) Thanatephorus cucumeris (Thanatephorus cucumeris; 25 mg/L): 9 (The antibacterial rate of 90˜100% could be set as 9 if the target has totally no growth) | Fungicidal activity (antibacterial rate grade) Thanatephorus cucumeris (Thanatephorus cucumeris; 50 mg/L): 9 (The antibacterial rate of 90˜100% could be set as 9 if the target has totally no growth) | Fungicidal activity (antibacterial rate grade) Thanatephorus cucumeris (Thanatephorus cucumeris; 100 mg/L): 9 (The antibacterial rate of 90˜100% could be set as 9 if the target has totally no growth) | Fungicidal activity (antibacterial rate grade) Septoria nodorum Berk. (Septoria nodorum Berk.; 12.5 mg/L): 9 (The antibacterial rate of 90˜100% could be set as 9 if the target has totally no growth) | Fungicidal activity (antibacterial rate grade) Septoria nodorum Berk. (Septoria nodorum Berk.; 25 mg/L): 9 (The antibacterial rate of 90˜100% could be set as 9 if the target has totally no growth) | Fungicidal activity (antibacterial rate grade) Septoria nodorum Berk. (Septoria nodorum Berk.; 50 mg/L): 9 (The antibacterial rate of 90˜100% could be set as 9 if the target has totally no growth) | Fungicidal activity (antibacterial rate grade) Septoria nodorum Berk. (Septoria nodorum Berk.; 100 mg/L): 9 (The antibacterial rate of 90˜100% could be set as 9 if the target has totally no growth) | Fungicidal activity (antibacterial rate grade) Botrytis cinerea (Botrytis cinerea; 12.5 mg/L): 3 (The antibacterial rate of 0˜30% could be set as 3 if the growth of the target is normal and consistent with that of the blank control) | Fungicidal activity (antibacterial rate grade) Botrytis cinerea (Botrytis cinerea; 25 mg/L): 3 (The antibacterial rate of 0˜30% could be set as 3 if the growth of the target is normal and consistent with that of the blank control) | Fungicidal activity (antibacterial rate grade) Botrytis cinerea (Botrytis cinerea; 50 mg/L): 3 (The antibacterial rate of 0˜30% could be set as 3 if the growth of the target is normal and consistent with that of the blank control) | Fungicidal activity (antibacterial rate grade) Botrytis cinerea (Botrytis cinerea; 100 mg/L): 3 (The antibacterial rate of 0˜30% could be set as 3 if the growth of the target is normal and consistent with that of the blank control) | Fungicidal activity (antibacterial rate grade) Leptosphaeria biglobosa (Leptosphaeria biglobosa; 12.5 mg/L): 9 (The antibacterial rate of 90˜100% could be set as 9 if the target has totally no growth) | Fungicidal activity (antibacterial rate grade) Leptosphaeria biglobosa (Leptosphaeria biglobosa; 25 mg/L): 9 (The antibacterial rate of 90˜100% could be set as 9 if the target has totally no growth) | Fungicidal activity (antibacterial rate grade) Leptosphaeria biglobosa (Leptosphaeria biglobosa; 50 mg/L): 9 (The antibacterial rate of 90˜100% could be set as 9 if the target has totally no growth) | Fungicidal activity (antibacterial rate grade) Leptosphaeria biglobosa (Leptosphaeria biglobosa; 100 mg/L): 9 (The antibacterial rate of 90˜100% could be set as 9 if the target has totally no growth) | Fungicidal activity (antibacterial rate grade) Alternaria kikuchiana (Alternaria kikuchiana; 12.5 mg/L): 3 (The antibacterial rate of 0˜30% could be set as 3 if the growth of the target is normal and consistent with that of the blank control) | Fungicidal activity (antibacterial rate grade) Alternaria kikuchiana (Alternaria kikuchiana; 25 mg/L): 3 (The antibacterial rate of 0˜30% could be set as 3 if the growth of the target is normal and consistent with that of the blank control) | Fungicidal activity (antibacterial rate grade) Alternaria kikuchiana (Alternaria kikuchiana; 50 mg/L): 3 (The antibacterial rate of 0˜30% could be set as 3 if the growth of the target is normal and consistent with that of the blank control) | Fungicidal activity (antibacterial rate grade) Alternaria kikuchiana (Alternaria kikuchiana; 100 mg/L): 3 (The antibacterial rate of 0˜30% could be set as 3 if the growth of the target is normal and consistent with that of the blank control) | Fungicidal activity (antibacterial rate grade) Corynespora leaf spot of tomato ([3]; 12.5 mg/L): 3 (The antibacterial rate of 0˜30% could be set as 3 if the growth of the target is normal and consistent with that of the blank control) | Fungicidal activity (antibacterial rate grade) Corynespora leaf spot of tomato ([3]; 25 mg/L): 3 (The antibacterial rate of 0˜30% could be set as 3 if the growth of the target is normal and consistent with that of the blank control) | Fungicidal activity (antibacterial rate grade) Corynespora leaf spot of tomato ([3]; 50 mg/L): 7 (The antibacterial rate of 70˜90% could be set as 7 if the target has small amounts of growth) | Fungicidal activity (antibacterial rate grade) Corynespora leaf spot of tomato ([3]; 100 mg/L): 7 (The antibacterial rate of 70˜90% could be set as 7 if the target has small amounts of growth) | Fungicidal activity (antibacterial rate grade) Rhizoctonia solani (Rhizoctonia solani; 12.5 mg/L): 3 (The antibacterial rate of 0˜30% could be set as 3 if the growth of the target is normal and consistent with that of the blank control) | Fungicidal activity (antibacterial rate grade) Rhizoctonia solani (Rhizoctonia solani; 25 mg/L): 3 (The antibacterial rate of 0˜30% could be set as 3 if the growth of the target is normal and consistent with that of the blank control) | Fungicidal activity (antibacterial rate grade) Rhizoctonia solani (Rhizoctonia solani; 50 mg/L): 3 (The antibacterial rate of 0˜30% could be set as 3 if the growth of the target is normal and consistent with that of the blank control) | Fungicidal activity (antibacterial rate grade) Rhizoctonia solani (Rhizoctonia solani; 100 mg/L): 3 (The antibacterial rate of 0˜30% could be set as 3 if the growth of the target is normal and consistent with that of the blank control) | Fungicidal activity (antibacterial rate grade) Colletotrichum gloeobosporioids ([4]; 12.5 mg/L): 9 (The antibacterial rate of 90˜100% could be set as 9 if the target has totally no growth) | Fungicidal activity (antibacterial rate grade) Colletotrichum gloeobosporioids ([4]; 25 mg/L): 9 (The antibacterial rate of 90˜100% could be set as 9 if the target has totally no growth) | Fungicidal activity (antibacterial rate grade) Colletotrichum gloeobosporioids ([4]; 50 mg/L): 9 (The antibacterial rate of 90˜100% could be set as 9 if the target has totally no growth) | Fungicidal activity (antibacterial rate grade) Colletotrichum gloeobosporioids ([4]; 100 mg/L): 9 (The antibacterial rate of 90˜100% could be set as 9 if the target has totally no growth) | Fungicidal activity (antibacterial rate grade) Pythium aphanidematum (Pythium aphanidermatum; 12.5 mg/L): 3 (The antibacterial rate of 0˜30% could be set as 3 if the growth of the target is normal and consistent with that of the blank control) | Fungicidal activity (antibacterial rate grade) Pythium aphanidematum (Pythium aphanidermatum; 25 mg/L): 3 (The antibacterial rate of 0˜30% could be set as 3 if the growth of the target is normal and consistent with that of the blank control) | Fungicidal activity (antibacterial rate grade) Pythium aphanidematum (Pythium aphanidermatum; 50 mg/L): 3 (The antibacterial rate of 0˜30% could be set as 3 if the growth of the target is normal and consistent with that of the blank control) | Fungicidal activity (antibacterial rate grade) Pythium aphanidematum (Pythium aphanidermatum; 100 mg/L): 3 (The antibacterial rate of 0˜30% could be set as 3 if the growth of the target is normal and consistent with that of the blank control) | Fungicidal activity (antibacterial rate grade) Magnaporthe oryzae (Magnaporthe oryzae; 12.5 mg/L): 9 (The antibacterial rate of 90˜100% could be set as 9 if the target has totally no growth) | Fungicidal activity (antibacterial rate grade) Magnaporthe oryzae (Magnaporthe oryzae; 25 mg/L): 9 (The antibacterial rate of 90˜100% could be set as 9 if the target has totally no growth) | Fungicidal activity (antibacterial rate grade) Magnaporthe oryzae (Magnaporthe oryzae; 50 mg/L): 9 (The antibacterial rate of 90˜100% could be set as 9 if the target has totally no growth) | Fungicidal activity (antibacterial rate grade) Magnaporthe oryzae (Magnaporthe oryzae; 100 mg/L): 9 (The antibacterial rate of 90˜100% could be set as 9 if the target has totally no growth)

From patent US20250084061A1, “SULFONYL FUNCTIONAL COMPOUND, METHODS AND USES THEREOF” (Hubei Biopesticide Engineering Research Centre, priority 2023, published 2025)
